Results as given in patent publication US10662204B2 (PFIZER INC., priority 2018, dated 2020).

Assays:
KRAS G12C = KRAS G12C (Homo sapiens, UniProt P01116, G12C); assay: Cell Activity Assay: accumulation of GDP-bound KRAS G12C in MIAPaCa-2 cells (Raf-1 RBD capture, MSD readout); format: cell-based; set-up: endogenous in cells; host or cells: MIAPaCa-2; conditions: 6 hours, assay limit is 30.00
In short: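 MIAPaCa-2 cells exposed 6 h at 37 °C to 3-fold compound dilutions (0.3% DMSO final), then lysed. Active GTP-KRAS captured on Raf-1 RBD-coated plates, detected with anti-pan-Ras and SULFO-TAG secondary by MSD electrochemiluminescence. Signal normalized to DMSO and maximum inhibition; IC50 from 4-parameter fit.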

[1] = molecular target: T1, GDP-loaded KRAS (1-169) G12C, C51S, C80L, C118S (Homo sapiens, UniProt P01116, C118S/C51S/C80L/G12C); assay: Mass Spectrometry Reactivity Assay (MSRA): covalent adduct of compound and KRAS G12C, Percent Modification; format: binding; conditions: for MSRA (% modification) 5.0 μM 0.25 hr / MSRA (% modification) 5.0 μM 0.017 hr: 5.0 μM compound; for MSRA (% modification) 10 μM 0.25 hr / MSRA (% modification) 10 μM 0.50 hr: 10 μM compound
T1 construct: GDP-loaded KRAS (1-169) G12C, C51S, C80L, C118S
In short: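 GDP-loaded KRAS(1-169) G12C/C51S/C80L/C118S at 5 μM in 25 mM Hepes pH 7.5, 200 mM NaCl, 5% glycerol incubated at RT with compound (typically 5 or 10 μM final, 1% DMSO). Quenched in formic acid at 1-60 min; intact-protein LC-TOF MS gives % modification = modified/(modified+unmodified).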

| Structure (SMILES) | IC50 (KRAS G12C) [µM] | MSRA (% modification) 5.0 μM 0.25 hr [1] [%] | MSRA (% modification) 10 μM 0.25 hr [1] [%] | MSRA (% modification) 10 μM 0.50 hr [1] [%] | MSRA (% modification) 5.0 μM 0.017 hr [1] [%] |
| --- | --- | --- | --- | --- | --- |
| C=CC(=O)N1CCN(c2nc(OC[C@@]3(F)CCN(C)C3)nc3c(Oc4c(Cl)c(F)cc5[nH]ncc45)nccc23)CC1 [Example 15H, 1-[4-(8-[(5-chloro-6-fluoro-1H-indazol-4-yl)oxy]-2-{[(3R)-3-fluoro-1-methylpyrrolidin-3-yl]methoxy}pyrido[3,4-d]pyrimidin-4-yl)piperazin-1-yl]prop-2-en-1-one] | 0.461 | 25 | 54 | – | – |
| C=CC(=O)N1CCN(c2ncnc3c(Oc4c(CC)ccc5[nH]ncc45)nccc23)CC1 [Example 07A, 1-(4-{8-[(5-ethyl-1H-indazol-4-yl)oxy]pyrido[3,4-d]pyrimidin-4-yl}piperazin-1-yl)prop-2-en-1-one] | 7.15 | – | – | 16 | – |
| C=CC(=O)N1CCN(c2ncnc3c(Oc4c(Cl)c(F)cc5[nH]ncc45)cccc23)CC1 [Example 18C, 1-(4-{8-[(5-chloro-6-fluoro-1H-indazol-4-yl)oxy]quinazolin-4-yl}piperazin-1-yl)prop-2-en-1-one] | 1.1 | 36 | – | 50 | – |
| C=CC(=O)N1CCN(c2nc(N3CCN(C)CC3)nc3c(Oc4c(C)ccc5[nH]ncc45)nccc23)CC1 [Example 03B, 1-(4-{8-[(5-methyl-1H-indazol-4-yl)oxy]-2-(4-methylpiperazin-1-yl)pyrido[3,4-d]pyrimidin-4-yl}piperazin-1-yl)prop-2-en-1-one] | 27.1 | – | – | 6 | – |
| C=CC(=O)N1CCN(c2nc(OC[C@H]3C[C@@H](F)CN3C)nc3c(Oc4c(Cl)c(F)cc5[nH]ncc45)nc(Cl)cc23)CC1 [Example 22G, 1-[4-(6-chloro-8-[(5-chloro-6-fluoro-1H-indazol-4-yl)oxy]-2-{[(2R,4R)-4-fluoro-1-methylpyrrolidin-2-yl]methoxy}pyrido[3,4-d]pyrimidin-4-yl)piperazin-1-yl]prop-2-en-1-one] | 0.072 | – | 81 | – | – |
| C=CC(=O)N1CCN(c2nc(OC[C@H]3CCN(C)C3)nc3c(Oc4c(C)ccc5[nH]ncc45)nccc23)CC1 [Example 19E, 1-[4-(8-[(5-methyl-1H-indazol-4-yl)oxy]-2-{[(3S)-1-methylpyrrolidin-3-yl]methoxy}pyrido[3,4-d]pyrimidin-4-yl)piperazin-1-yl]prop-2-en-1-one] | 29.8 | – | 33 | – | – |
| C=CC(=O)N1CCN(c2ncnc3c(Oc4c(C)c(Cl)cc5[nH]ncc45)nccc23)C[C@H]1C [Example 24A, 1-[(2R)-4-{8-[(6-chloro-5-methyl-1H-indazol-4-yl)oxy]pyrido[3,4-d]pyrimidin-4-yl}-2-methylpiperazin-1-yl]prop-2-en-1-one] | 4.72 | – | – | 20 | – |
| C=CC(=O)N1CCN(c2nc(OC[C@@H]3COCCN3C)nc3c(Oc4c(Cl)c(F)cc5[nH]ncc45)nccc23)CC1 [Example 03H, 1-[4-(8-[(5-chloro-6-fluoro-1H-indazol-4-yl)oxy]-2-{[(3S)-4-methylmorpholin-3-yl]methoxy}pyrido[3,4-d]pyrimidin-4-yl)piperazin-1-yl]prop-2-en-1-one] | 0.842 | 51 | – | 72 | – |
| C=CC(=O)N1CCN(c2nc(OC[C@@H]3C[C@@H](F)CN3C)nc3c(Oc4c(Cl)c(F)cc5[nH]ncc45)nccc23)CC1 [Example 16H, 1-[4-(8-[(5-chloro-6-fluoro-1H-indazol-4-yl)oxy]-2-{[(2S,4R)-4-fluoro-1-methylpyrrolidin-2-yl]methoxy}pyrido[3,4-d]pyrimidin-4-yl)piperazin-1-yl]prop-2-en-1-one] | 0.169 | 57 | – | – | – |
| C=CC(=O)N1CCN(c2nc(OCCCN(C)C)nc3c(Oc4c(Cl)c(C)cc5[nH]ncc45)cc(Cl)cc23)CC1 [Example 12E, 1-(4-{6-chloro-8-[(5-chloro-6-methyl-1H-indazol-4-yl)oxy]-2-[3-(dimethylamino)propoxy]quinazolin-4-yl}piperazin-1-yl)prop-2-en-1-one] | 0.835 | – | – | 79 | – |
| C=CC(=O)N1CCN(c2nc(OCCN(C)C)nc3c(Oc4c(Cl)c(C)cc5[nH]ncc45)cc(Cl)cc23)CC1 [Example 13E, 1-(4-{6-chloro-8-[(5-chloro-6-methyl-1H-indazol-4-yl)oxy]-2-[2-(dimethylamino)ethoxy]quinazolin-4-yl}piperazin-1-yl)prop-2-en-1-one] | 0.452 | – | 75 | 79 | – |
| C=CC(=O)N1CCN(c2ncnc3c(Oc4c(C)c(Cl)cc5[nH]ncc45)cccc23)CC1CC#N (stereo not drawn) [Example 22C, (1-acryloyl-4-{8-[(5-chloro-6-mehtyl-1H-indazol-4-yl)oxy]quinazolin-4-yl}piperazin-2-yl)acetonitrile] | 14 | – | 75 | 75 | – |
| C=CC(=O)N1CCN(c2nc(OC[C@@H]3CCCN3C)nc3c(Oc4c(C)ccc5[nH]ncc45)nccc23)CC1 [Example 08B, 1-[4-(8-[(5-methyl-1H-indazol-4-yl)oxy]-2-{[(2S)-1-methylpyrrolidin-2-yl]methoxy}pyrido[3,4-d]pyrimidin-4-yl)piperazin-1-yl]prop-2-en-1-one] | 2.56 | – | 44 | – | – |
| C=CC(=O)N1CCN(c2ncnc3c(Oc4c(Cl)c(F)cc5[nH]ncc45)cccc23)C[C@H]1C [Example 17C, 1-[(2R)-4-{8-[(5-chloro-6-fluoro-1H-indazol-4-yl)oxy]quinazolin-4-yl}-2-methylpiperazin-1-yl]prop-2-en-1-one] | 2.6 | – | – | 24 | – |
| C=CC(=O)N1CCN(c2ncnc3c(Oc4c(Cl)c(F)cc5[nH]ncc45)nccc23)CC1 [Example 02C, 1-(4-{8-[(5-chloro-6-fluoro-1H-indazol-4-yl)oxy]pyrido[3,4-d]pyrimidin-4-yl}piperazin-1-yl)prop-2-en-1-one] | 1.01 | 12 | – | 60 | – |
| C=CC(=O)N1CCN(c2nc(O[C@@H]3CN(C)C[C@H]3OC)nc3c(Oc4c(C)ccc5[nH]ncc45)nc(Cl)cc23)CC1 [Example 35G, 1-[4-(6-chloro-2-{[(3R,4R)-4-methoxy-1-methylpyrrolidin-3-yl]oxy}-8-[(5-methyl-1H-indazol-4-yl)oxy]pyrido[3,4-d]pyrimidin-4-yl)piperazin-1-yl]prop-2-en-1-one] | 0.027 | – | – | – | 75 |
| C=CC(=O)N1CCN(c2nc(O[C@@H]3CCN(CCOC)C[C@H]3C)nc3c(Oc4c(Cl)c(F)cc5[nH]ncc45)nc(Cl)cc23)CC1 (racemic) [Example 33G, rac-1-[4-(6-chloro-8-[(5-chloro-6-fluoro-1H-indazol-4-yl)oxy]-2-{[(3R,4R)-1-(2-methoxyethyl)-3-methylpiperidin-4-yl]oxy}pyrido[3,4-d]pyrimidin-4-yl)piperazin-1-yl]prop-2-en-1-one] | 0.052 | – | – | – | 51 |
| C=CC(=O)N1CCN(c2nc(OC[C@H]3CCCN3C)nc3c(Oc4c(C)c(Cl)cc5[nH]ncc45)cccc23)CC1 [Example 21E, 1-[4-(8-[(6-chloro-5-methyl-1H-indazol-4-yl)oxy]-2-{[(2R)-1-methylpyrrolidin-2-yl]methoxy}quinazolin-4-yl)piperazin-1-yl]prop-2-en-1-one] | 0.18 | – | 65 | – | – |
| C=CC(=O)N1CCN(c2nc(OC[C@@H]3CCCN3C)nc3c(Oc4c(C)c(F)cc5[nH]ncc45)nccc23)CC1 [Example 04I, 1-[4-(8-[(6-fluoro-5-methyl-1H-indazol-4-yl)oxy]-2-{[(2S)-1-methyl-pyrrolidin-2-yl]methoxy}pyrido [3,4-d]pyrimidin-4-yl)piperazin-1-yl]prop-2-en-1-one] | 0.375 | 55 | – | – | – |
| [2H]C([2H])([2H])N1C[C@@H](OC)[C@H](Oc2nc(N3CCN(C(=O)C=C)CC3)c3cc(Cl)nc(Oc4c(Cl)c(F)cc5[nH]ncc45)c3n2)C1 [Example 41G, 1-[4-(6-chloro-8-[(5-chloro-6-fluoro-1H-indazol-4-yl)oxy]-2-{[(3R,4R)-4-methoxy-1-(^2H3)methylpyrrolidin-3-yl]oxy}pyrido[3,4-d]pyrimidin-4-yl)piperazin-1-yl]prop-2-en-1-one] | 0.007 | – | – | – | 83 |
| C=CC(=O)N1CCN(c2ncnc3c(Oc4c(Br)c(C)cc5[nH]ncc45)nccc23)CC1 [Example 13A, 1-(4-{8-[(5-bromo-6-methyl-1H-indazol-4-yl)oxy]pyrido[3,4-d]pyrimidin-4-yl}piperazin-1-yl)prop-2-en-1-one] | 0.394 | – | 44 | 69 | – |
| C=CC(=O)N1CCN(c2ncnc3c(Oc4c(Cl)c(F)cc5[nH]ncc45)nc(Cl)cc23)[C@@H](C)C1 [Example 39A, 1-[(3S)-4-{6-chloro-8-[(5-chloro-6-fluoro-1H-indazol-4-yl)oxy]pyrido[3,4-d]pyrimidin-4-yl}-3-methylpiperazin-1-yl]prop-2-en-1-one] | 0.246 | – | 74 | – | – |
